Measurements as given in patent US12522582B2 (Gilead Sciences, Inc., priority 2022, dated 2026).
Like-named read-outs stand apart in the source and are kept apart here.

What was measured:
[1] = system: HSV-2 virus (MS strain); assay: HSV-2 Cellomics Assay (immunofluorescence of HSV protein gD in infected ARPE-19 cells); conditions: Human alphaherpesvirus 2, ARPE-19, 16 h
Experimental: Compounds were tested for their ability to inhibit HSV-2 replication by monitoring the expression of the HSV protein gD using a high-throughput immunofluorescence-based assay. 10-dose, 3-fold serial dilutions of compounds were prepared at starting concentrations of 0.2 or 2 mM in 100% DMSO. […] The final starting concentration in the assay was either 1 or 10 μM. DMSO (no compound) and pritelivir were included on each microplate as negative and positive controls, respectively.
Prior to confluence, cells were transferred to a centrifuge tube and spun for 5 minutes at 1000 rpm. Cells were resuspended in assay medium (DMEM/F-12 Glutamax, 2% FBS, 1% Penicillin-Streptomycin) and counted. Cell density was adjusted to 150,000 cells/ml and infected with HSV-2 virus (MS strain, ATCC cat #VR-540) at a MOI of 0.06 in a 50 ml conical tube for 1 hour under constant rocking. Cells were then spun for 5 minutes at 1000 rpm and the media replaced with assay medium containing either 2% FBS or 10% human serum (EMD Millipore cat #S1-100 ML). 50 μl of the infection suspension were added into microplate wells that were pre-spotted with compounds (7,500 cells per well). Plates were incubated for 16 hours at 37° C.
After a 30-minute incubation at room temperature, plates were washed 4 times with 100 μl/well of PBS using a Biotek plate washer. […] Plates were washed 4 times again and 50 μl of DPBS were added to all wells prior to sealing the plates with a black adhesive seal. Fluorescence was measured on a Cellomics plate reader.
Data analysis was carried out using the Thermo Scientific HCS Studio software. Briefly, cells were identified using the DAPI nuclear stain and thresholds were set to filter cells out based on shape and size. A second threshold based on green fluorescence intensity (detection of HSV-2 gD) was set to identify HSV-2 infected cells. Data was reported as the average fluorescence intensity of HSV-2 infected cells.

[2] = MT-4 CC50 Assay (CellTiter Glo); format: cell-based; conditions: human, MT-4 cells, luminescence, read-out: CC50-MT4
Experimental: Compounds were tested in 384-well plates: 18 compounds in duplex. Compounds were diluted in 7 points, 3-fold with DMSO by Bravo. Assay plate, which contains 20 uL medium with compounds, was seeded 2000 MT-4 cells in 20 uL/well by Multi-drop to start the assay. The plate was incubated at 37° C. for 5 days. On 6th day, the CellTiter Glo 40 uL was added in each well. Luminescence was read by Victor II.

[3] = read-out: EC50-HSV2-10% Human Serum

| SMILES | EC50 [1, 3] [nM] | EC50 ([1]; read-out: EC50-HSV2-FBS) [nM] | CC50 at 5 days [2] [nM] |
| --- | --- | --- | --- |
| C[S@](=N)(=O)c1ccc2c(c1)N(C(=O)[C@@H]1Cc3ccc(-c4ccccn4)cc3C1)CC2 (single isomer, unassigned) [Example 33] | 1370 | 165 | ≥ 50000 |
| NS(=O)(=O)c1cc2c(cc1F)CCN2C(=O)C1Cc2ccc(-c3ccccn3)cc2C1 (stereo not shown) [Example 8] | 22700 | 9.9 | 42300 |
| NS(=O)(=O)c1ccc2c(c1)N(C(=O)C1Cc3ccc(-c4cscn4)cc3C1)CC2 (stereo not shown) [Example 19] | ≥ 25000 | 23 | 37700 |
| NS(=O)(=O)c1ccc2c(c1)N(C(=O)C1Cc3ccc(-c4cocn4)cc3C1)CC2 (stereo not shown) [Example 23] | 11000 | 19 | ≥ 50000 |
| NS(=O)(=O)c1ccc2c(c1)N(C(=O)C1Cc3cc(-c4ccccn4)ccc3O1)CC2 (stereo not shown) [Example 36] | ≥ 25000 | 71 | ≥ 50000 |
| NS(=O)(=O)c1cc2c(cc1F)CCN2C(=O)C1Cc2cc(-c3ccccn3)ccc2O1 (stereo not shown) [Example 37] | 19300 | 10 | ≥ 50000 |
| C[C@@H]1Cc2cc(Br)c(S(N)(=O)=O)cc2N1C(=O)[C@@H]1Cc2ccc(-c3ccccn3)cc2C1 [Example 38, (R)-5-bromo-2-methyl-1-((R)-5-(pyridin-2-yl)-2,3-dihydro-1H-indene-2-carbonyl)indoline-6-sulfonamide] | 543 | 19 | ≥ 10000 |
| C[S@](=N)(=O)c1cc2c(cc1F)CCN2C(=O)[C@@H]1Cc2ccc(-c3ccccn3)cc2C1 [Example 41, (S)-(5-fluoro-1-((R)-5-(pyridin-2-yl)-2,3-dihydro-1H-indene-2-carbonyl)indolin-6-yl)(imino)(methyl)-16-sulfanone] | 140 | 37 | ≥ 10000 |
| C[C@@H]1[C@@H](C)c2cc(F)c(S(N)(=O)=O)cc2N1C(=O)[C@@H]1Cc2ccc(-c3ccccn3)cc2C1 [Example 46, (2R,3S)-5-fluoro-2,3-dimethyl-1-((R)-5-(pyridin-2-yl)-2,3-dihydro-1H-indene-2-carbonyl)indoline-6-sulfonamide] | 143 | 16 | ≥ 10000 |
| C[C@@H]1c2cc(F)c(S(N)(=O)=O)cc2N(C(=O)[C@@H]2Cc3ccc(-c4ccccn4)cc3C2)[C@@H]1C [Example 48, (2R,3R)-5-fluoro-2,3-dimethyl-1-((R)-5-(pyridin-2-yl)-2,3-dihydro-1H-indene-2-carbonyl)indoline-6-sulfonamide] | 104 | 16 | ≥ 10000 |
| NS(=O)(=O)c1ccc2c(c1)N(C(=O)C1Cc3ccc(-c4ccccn4)cc3C1)CC2 (stereo not shown) [Example 71, 1-(5-(pyridin-2-yl)-2,3-dihydro-1H-indene-2-carbonyl) indoline-6-sulfonamide] | ≥ 25000 | 30 | – |
| COc1cncc(-c2ccc3c(c2)CC(C(=O)N2CCc4ccc(S(N)(=O)=O)cc42)C3)n1 (stereo not shown) [Example 72] | 12300 | 252 | – |
| COc1cccc(-c2ccc3c(c2)CC(C(=O)N2CCc4ccc(S(N)(=O)=O)cc42)C3)n1 (stereo not shown) [Example 77] | 10500 | 121 | – |
| NS(=O)(=O)c1ccc2c(c1)N(C(=O)C1Cc3ccc(-n4cncn4)cc3C1)CC2 (stereo not shown) [Example 79, 1-(5-(1H-1,2,4-triazol-1-yl)-2,3-dihydro-1H-indene-2-carbonyl)indoline-6-sulfonamide] | – | 2060 | – |
| NS(=O)(=O)c1ccc2c(c1)N(C(=O)[C@H]1Cc3ccc(-c4ccccn4)cc3C1)CC2 [Example 80, (S)-1-(5-(pyridin-2-yl)-2,3-dihydro-1H-indene-2-carbonyl)indoline-6-sulfonamide] | – | 409 | – |
| NS(=O)(=O)c1ccc2c(c1)N(C(=O)[C@H]1Cc3ccc(-c4ccccc4F)cc3C1)CC2 [Example 82, (S)-1-(5-(2-fluorophenyl)-2,3-dihydro-1H-indene-2-carbonyl)indoline-6-sulfonamide] | – | 8040 | – |
| NS(=O)(=O)c1ccc2c(c1)N(C(=O)[C@@H]1Cc3ccc(-c4ccccc4F)cc3C1)CC2 [Example 83, (R)-1-(5-(2-fluorophenyl)-2,3-dihydro-1H-indene-2-carbonyl)indoline-6-sulfonamide] | ≥ 25000 | 177 | – |
| CC1c2ccc(-c3ccccn3)cc2CC1C(=O)N1CCc2ccc(S(N)(=O)=O)cc21 (stereo not shown) [Example 92] | 238 | 28 | – |

| SMILES | EC50 [1, 3] [nM] | EC50 ([1]; read-out: EC50-HSV2-FBS) [nM] | CC50 at 5 days [2] [nM] |
| --- | --- | --- | --- |
| C[C@@H]1c2ccc(-c3ccccn3)cc2C[C@H]1C(=O)N1CCc2ccc(S(N)(=O)=O)cc21 [Example 93, 1-((1S,2R)-1-methyl-5-(pyridin-2-yl)-2,3-dihydro-1H-indene-2-carbonyl)indoline-6-sulfonamide] | ≥ 25000 | 1850 | – |
| CC1c2cc(-c3ccccn3)ccc2CC1C(=O)N1CCc2ccc(S(N)(=O)=O)cc21 (stereo not shown) [Example 95, 1-(1-methyl-6-(pyridin-2-yl)-2,3-dihydro-1H-indene-2-carbonyl) indoline-6-sulfonamide] | ≥ 25000 | 2850 | – |
| C[C@@H]1c2ccc(-c3ccccn3)cc2C[C@H]1C(=O)N1CCc2cc(F)c(S(N)(=O)=O)cc21 [Example 98, 5-fluoro-1-((1S,2R)-1-methyl-5-(pyridin-2-yl)-2,3-dihydro-1H-indene-2-carbonyl)indoline-6-sulfonamide] | 6650 | 1360 | – |
| CC1CN(C(=O)[C@@H]2Cc3cc(-c4ccccn4)ccc3[C@H]2C)c2cc(S(N)(=O)=O)ccc21 (stereo partly drawn) [Example 101, 3-methyl-1-((1S,2R)-1-methyl-5-(pyridin-2-yl)-2,3-dihydro-1H-indene-2-carbonyl)indoline-6-sulfonamide] | – | 6760 | – |
| CC1CN(C(=O)[C@H]2Cc3cc(-c4ccccn4)ccc3[C@@H]2C)c2cc(S(N)(=O)=O)ccc21 (stereo partly drawn) [Example 102, 3-methyl-1-((1R,2S)-1-methyl-5-(pyridin-2-yl)-2,3-dihydro-1H-indene-2-carbonyl) indoline-6-sulfonamide] | 905 | 160 | – |
| C[C@H]1CN(C(=O)[C@@H]2Cc3ccc(-c4ccccn4)cc3C2)c2cc(S(N)(=O)=O)ccc21 [Example 107, (R)-3-methyl-1-((R)-5-(pyridin-2-yl)-2,3-dihydro-1H-indene-2-carbonyl)indoline-6-sulfonamide] | ≥ 25000 | 95 | – |
| C[C@@H]1CN(C(=O)[C@@H]2Cc3ccc(-c4ccccn4)cc3C2)c2cc(S(N)(=O)=O)ccc21 [Example 108, (S)-3-methyl-1-((R)-5-(pyridin-2-yl)-2,3-dihydro-1H-indene-2-carbonyl)indoline-6-sulfonamide] | – | 285 | – |
| CC1(C)CN(C(=O)C2Cc3ccc(-c4ccccn4)cc3C2)c2cc(S(N)(=O)=O)ccc21 (stereo not shown) [Example 109] | – | 390 | – |
| NS(=O)(=O)c1cc2c(cc1Br)CCN2C(=O)C1Cc2ccc(-c3ccccn3)cc2C1 (stereo not shown) [Example 110, 5-Bromo-1-(5-(pyridin-2-yl)-2,3-dihydro-1H-indene-2-carbonyl)indoline-6-sulfonamide] | ≥ 25000 | 26 | – |
| COc1cc2c(cc1S(N)(=O)=O)N(C(=O)C1Cc3ccc(-c4ccccn4)cc3C1)CC2 (stereo not shown) [Example 111, 5-Methoxy-1-[5-(2-pyridyl)indane-2-carbonyl]indoline-6-sulfonamide] | ≥ 25000 | 1740 | – |
| CC[C@H]1Cc2cc(F)c(S(N)(=O)=O)cc2N1C(=O)[C@@H]1Cc2ccc(-c3ccccn3)cc2C1 [Example 114] | 926 | 128 | – |
| NS(=O)(=O)c1ccc2c(c1)N(C(=O)C1Cc3ccc(-c4ccccn4)cc3O1)CC2 (stereo not shown) [Example 115, 1-(6-(pyridin-2-yl)-2,3-dihydrobenzofuran-2-carbonyl)indoline-6-sulfonamide] | 1640 | 99 | – |
| NS(=O)(=O)c1ccc2c(c1)N(C(=O)[C@@H]1Cc3ccc(-c4ncccn4)cc3C1)CC2 [Example 133, (R)-1-(5-(pyrimidin-2-yl)-2,3-dihydro-1H-indene-2-carbonyl)indoline-6-sulfonamide] | 6130 | 102 | – |
| NS(=O)(=O)c1ccc2c(c1)N(C(=O)[C@@H]1Cc3ccc(-c4cccc5ccccc45)cc3C1)CC2 [Example 134, (R)-1-(5-(naphthalen-1-yl)-2,3-dihydro-1H-indene-2-carbonyl)indoline-6-sulfonamide] | 3100 | 231 | – |
| C[C@@H]1CN(C(=O)[C@H]2Cc3cc(-c4ccccn4)c(F)cc3O2)c2cc(S(N)(=O)=O)c(F)cc21 [Example 136, (S)-5-fluoro-1-((R)-6-fluoro-5-(pyridin-2-yl)-2,3-dihydrobenzofuran-2-carbonyl)-3-methylindoline-6-sulfonamide] | 2220 | 89.6 | – |
| C[C@H]1CN(C(=O)[C@H]2Cc3cc(-c4ccccn4)c(F)cc3O2)c2cc(S(N)(=O)=O)c(F)cc21 [Example 137, (R)-5-fluoro-1-((R)-6-fluoro-5-(pyridin-2-yl)-2,3-dihydrobenzofuran-2-carbonyl)-3-methylindoline-6-sulfonamide] | 538 | 129 | – |
| C[C@H]1c2ccc(-c3ccccn3)cc2C[C@@H]1C(=O)N1C[C@H](C(F)(F)F)c2cc(F)c(S(N)(=O)=O)cc21 [Example 139, (R)-5-fluoro-1-((1R,2S)-1-methyl-5-(pyridin-2-yl)-2,3-dihydro-1H-indene-2-carbonyl)-3-(trifluoromethyl)indoline-6-sulfonamide] | 1710 | 74.2 | – |
| C[C@@H]1Cc2cc(F)c(S(N)(=O)=O)cc2N1C(=O)[C@H]1Cc2ccc(-c3ccccn3)cc2C1 [Example 141, (R)-5-fluoro-2-methyl-1-((S)-5-(pyridin-2-yl)-2,3-dihydro-1H-indene-2-carbonyl)indoline-6-sulfonamide] | 2630 | 293 | – |
